Measurements reported in article PMC11144398, “Crizotinib inhibits the metabolism of tramadol by non-competitive suppressing the activities of CYP2D1 and CYP3A2” (PeerJ, 2024).

Key:
[1] = system: tramadol metabolism (O-desmethyl tramadol production) in rat liver microsomes; assay: Liver microsomal incubation assay: inhibition of tramadol metabolism (O-desmethyl tramadol production) in RLM; type: in vitro ADME; conditions: rat, tramadol 60 µM
Protocol: (§1) All the substance meet the requirements for analysis.
(§2) To obtain the Michaelis kinetic parameters of tramadol in RLM and HLM, a 200 µL incubation system was established containing 2 µL RLM or HLM (0.2 mg/mL), 186 µL 1xPBS buffer (pH = 7.4), 2 µL tramadol (10–500 µM), and 10 µL NADPH (1 mM). The mixture was pre-incubated for 5 min without NADPH in a water bath shaking at 37 °C. Then, NADPH was added to initiate the reaction, and the mixture was incubated for another 30 min. The reaction was terminated by adding 400 µL of cold ACN and 20 µL of IS (500 ng/mL).
(§3) For drug-interaction screening, 100 µM of each drug (1.6 µL) was added to the system, and added PBS to the final volume of 200 uL. Tramadol concentration was set at 60 µM according to the Km.
(§4) To determine the half-maximal inhibitory concentration (IC50), the concentration of crizotinib was set at 0.01, 0.1, 1, 10, 25, 50, and 100 µM, while the concentration of tramadol was constant at 60 µM in RLM or 100 µM in HLM (according to Km).
(§5) All data were presented as mean ± SD (standard deviation).

[2] = system: tramadol metabolism in rat liver microsomes (RLM); assay: as above; type: in vitro ADME; conditions: RLM
Protocol: as §1, §2, §3, §4, §5

[3] = Pharmacokinetics of tramadol and O-desmethyl tramadol in SD rats with or without crizotinib; conditions: single dose of crizotinib 45 mg/kg, tramadol 20 mg/kg
Text: Ultra-performance liquid chromatography-tandem mass spectrometry (UPLC-MS/MS) was utilized to measure the concentration of both tramadol and O-desmethyl tramadol. Separation was achieved using a Waters Acquity UPLC BEH C18 column, with dimensions of 2.1 mm × 50 mm and 1.7-µm particle size (Waters Corp., Milford, MA, USA), and quantitation was completed using a Waters XEVO TQD triple quadruple mass spectrometer. The mobile phase was composed of 0.1% formic acid (A) and ACN (B), and the gradient elution was carried out with a flow rate of 0.4 mL/min, following the procedure: 90–10% A (0–1.4 min), 10–90% A (1.4–1.5 min), and 90% A (1.5–2.0 min). Positive mode was used to detect the analytes with the following transitions: m/z 264.2 →58.0, m/z 250.2 →58.2, and m/z 285.0 →154.0 for tramadol, O-desmethyl tramadol, and diazepam (used as an internal standard, IS), respectively. The collision energy was 20 V for tramadol and O-desmethyl tramadol, and 25 V for diazepam. The standard for tramadol and O-desmethyl tramadol were dissolved in a small amount of DMSO (the concentration was 1 mg/mL) then diluted with acetonitrile (the final concentration was 1 ng/mL–1,000 ng/mL). Diazepam was diluted with methanol gradually to 500 ng/mL).
SD male rats (280 ± 15 g) were purchased from the Shanghai Animal Experimental Center. Before the experiment, the rats were kept in the animal room for two weeks with adequate water and food in order to adapt to the new environment. The room temperature was kept at 20–25 °C and the humidity was kept at 50%–65%. The change period of light and dark conditions was 12 h, which simulates the change of day and night. All animal experiments were approved by the Ethics Committee of Wenzhou Medical University (Approval number: xmsq2022-0621).
Generally speaking, only when at least five or more animals are involved in the experiment can the results be convincing. Thus, twenty SD rats were randomly divided into four groups with five animals per group: group A received a single dose of 20 mg/kg of tramadol; group B received a single dose of 45 mg/kg of crizotinib and 20 mg/kg of tramadol; group C received multiple doses of 0.5% carboxymethylcellulose sodium salt (CMC-Na) for 7 days and a single dose of 20 mg/kg of tramadol; and group D received multiple doses of 45 mg/kg of crizotinib for 7 days and a single dose of 20 mg/kg of tramadol. Prior to the experiment, all rats were fasted for 12 h but allowed free access to water. Once the experiment began, 0.5% CMC-Na and crizotinib were administered to groups C and D for 7 days, respectively, then to groups A and B on the last day of the experiment. After 30 min, all rats were orally administered 20 mg/kg of tramadol. Blood samples were collected from the tail vein at 5 min, 15 min, 30 min, 1 h, 2 h, 3 h, 4 h, 6 h, 8 h, 10 h, 12 h, and 24 h following tramadol administration. […] The samples were centrifuged at 2400 × g for 10 min to obtain serum. Each 50 µL serum was mixed with 150 µL ACN and 20 µL IS (500 ng/mL). After vortexing for 2 min and centrifugation at 16200 × g for 10 min at 4 °C, the supernatant was obtained, then we used UPLC-MS/MS analysis to detect the concentration of tramadol and O-desmethyl tramadol. After the experiment, all the animals were euthanized by 5% isoflurane inhalation anesthesia.
The Michaelis–Menten, IC50, and Lineweaver-Burk plots were generated using GraphPad Prism 6.0 software (GraphPad Software, Boston, MA, USA) with corresponding values for Km, IC50, and Ki (inhibition constant).

[4] = Serum biochemical analysis (ALT, AST); type: in vivo, Sprague-Dawley rats; conditions: vs control
Protocol: (§6) Nine rats were randomly divided into three groups (n = 3): group E received 0.5% CMC-Na for 7 days; group F received 45 mg/kg crizotinib for 6 days; and group G received 45 mg/kg of crizotinib for 7 days. […] The blood, liver, kidney, and small intestine were harvested within 10 min and flash-frozen in liquid nitrogen before being transferred to −80 °C for later use.
Serum was collected after centrifugation of blood sample at 2400 × g for 5 min at 4 °C. The levels of ALT and AST were detected according to the protocol of ALT and AST activity assay kits.

[5] = system: tramadol metabolism in human liver microsomes (HLM); assay: Liver microsomal incubation assay: inhibition of tramadol metabolism in HLM; type: in vitro ADME
Protocol: as §1, §2, §4, §5

[6] = system: tramadol metabolism in human liver microsomes; assay: as above; type: in vitro ADME; conditions: human, human liver microsomes, pH 7.4, probe tramadol 100 µM, tramadol 100 µM, crizotinib 0.01-100 µM
Protocol: as §1, §2, §4, §5

[7] = system: total CYP in rat liver microsomes; assay: Carbon monoxide differential UV spectrophotometric quantification of total CYP; type: in vitro ADME; conditions: RLM from crizotinib-treated rats (45 mg/kg); CO quantitative method
Protocol: as §6
The CO quantitative method was utilized to measure the total quantity of CYP in rat liver microsomes. The microsomes were transferred to a 1.5 mL centrifuge tube and CO gas was introduced for 60 s. Next, sodium dithionite powder was added and mixed thoroughly. After two minutes, the absorbance of the liquid was measured at 450 nm and 490 nm ultraviolet wavelengths using an ultraviolet and visible spectrophotometer to calculate the total amount of CYP.

[8] = crizotinib 45 mg/kg for consecutive 7 days
[9] = crizotinib 45 mg/kg single dose

SMILES: C[C@@H](Oc1cc(-c2cnn(C3CCNCC3)c2)cnc1N)c1c(Cl)ccc(F)c1Cl [crizotinib]
- inhibition at 30 min, 100 µM ([1]; pH 7.4, RLM, 100 µM of each drug, vs control group, read-out: inhibitory rate on tramadol metabolism (production of O-desmethyl tramadol)): 97.2%
- IC50 at 30 min ([1]; pH 7.4, RLM, crizotinib 0.01-100 µM): 8.74 ± 0.18 µM
- inhibition mode of tramadol metabolism ([2]; Lineweaver-Burk plot): non-competitive
- Ki ([2]; Lineweaver-Burk, crizotinib 0, 4, 8, 16 µM, tramadol 15-120 µM): 4.17 µM
- effect on pharmacokinetic parameters of O-desmethyl tramadol [3]: no significant differences
- level of serum ALT [4, 8]: increased significantly
- level of serum AST [4, 8]: increased significantly
- level of serum ALT [4, 9]: no significant change
- level of serum AST [4, 9]: no significant change
- inhibition mode of tramadol metabolism ([5]; Lineweaver-Burk plot): non-competitive
- Ki ([5]; Lineweaver-Burk, crizotinib 0, 5, 10, 20 µM, tramadol 25-200 µM): 14.4 µM
- IC50 at 30 min [6]: 11.9 ± 0.25 µM
- total amount of CYP [7]: decreased
